Experimental data: article PMC3397443, “Sinularones A–I, New Cyclopentenone and Butenolide Derivatives from a Marine Soft Coral Sinularia sp. and Their Antifouling Activity” (Marine Drugs, 2012)
Values after ≈ are worked out from the molar mass of the structure shown. Where two headings read alike, the source gives them in different places.

Legend:
[1] = system: larvae of the barnacle Balanus amphitrite; assay: Larval settlement bioassay (antifouling activity); assay type: in vivo; conditions: for EC50: Amphibalanus amphitrite, read-out: Balanus amphitrite Larvae EC50
Protocol: (§1) All compounds were tested for their cytotoxicity against a panel of tumor cell lines including human ovarian carcinoma A2780, human lung adenocarcinoma A549, human gastric carcinoma BGC823, human hepatoma Bel7402, and human colonic carcinoma HCT-8. […] In order to detect whether these compounds play a role for ecological functions, the test for antifouling activity against the larvae of the barnacle Balanus amphitrite was performed. […] A primary discussion of structure-activity relationship implied that α,β-unsaturated 2,3-dimethyl-γ-lactone is a functional unit for anti-barnacle.
(§2) Adults of the barnacle Balanus amphitrite Darwin were exposed to air for more than 6 h, and then were placed in a container filled with fresh 0.22 µm filtered sea water (FSW) to release nauplii. The collected nauplii were reared to cyprid stage according to the method described by Thiyagarajan et al.. When kept at 26–28 °C and fed with Chaetoceros gracilis, larvae developed to cyprids within four days. Fresh cyprids were used in the tests.

[2] = Toxicity against barnacle larvae (LC50); conditions: Balanus amphitrite (barnacle), in vivo; concentration required to kill 50% of larvae of a tested population
Protocol: as §1, §2

[3] = concentration where 50% of larval population was inhibited to settle compared to control, cyprids

| SMILES | EC50 [1, 3] [µg/mL] | LC50 [2] [µg/mL] | EC50 [1] [µg/mL] | antifouling activity (in words) ([1]; against the barnacle Balanus amphitrite) |
| --- | --- | --- | --- | --- |
| CCCCC[C@@]1(O)C(C)=C(C)C(=O)[C@H]1CC(=O)OCC [Compound 2, Sinularone B] | 23.5 (≈ 83.2 µM) | > 50 |  |  |
| CC(=O)CC/C=C(/C)C[C@@H]1CC(C)(C)CC1=O [Compound 1, Sinularone A] | 13.9 (≈ 58.6 µM) | > 50 |  |  |
| CCOC(=O)CC[C@]1(O)OC(=O)C(C)=C1C [Compound 7, Sinularone G] | 18.6 (≈ 81.7 µM) | > 50 |  |  |
| CCCCC[C@]1(O)OC(=O)C(C)=C1C [Compound 10, (S)-4-hydroxy-2,3-dimethyl-4-pentyl-γ-lactone] |  | > 50 | 3.84 (≈ 19.4 µM) | the most active |
| CCOC(=O)CCCCCCCCCCCC[C@]1(O)OC(=O)C(C)=C1C [Compound 9, Sinularone I] | 12.6 (≈ 34.1 µM) | > 50 |  |  |
| CCO[C@@]1(CCC(=O)OC)OC(=O)C(C)=C1C [Compound 8, Sinularone H] | 21.4 (≈ 88.3 µM) | > 50 |  |  |
